Experimental findings from patent US5510501A, “Saintopin derivatives” (Kyowa Hakko Kogyo, Co. Ltd., priority 1992, dated 1996) are described below.

Molecules are shown by their SMILES. pIC50: −log10 of the molar value. Values after ≈ are worked out from the molar mass of the structure shown.

The test system of one data set is BALB 3T3/H-ras cells. As to the kind of experiment: Growth inhibition against BALB 3T3/H-ras cells. The data set is classed as cell-based. To be noted: Mus musculus, 72 hours, Neutral Red.
Another data set can be described thus: Solubility. The data set is classed as physicochemical.
Data set [1] concerns Enterococcus faecium ATCC 10541. Nature of the data set: Antibacterial activity, MIC by agar dilution method. The data set is classed as cell-based. To be noted: ATCC10541, pH 7. On the procedure: (§1) The antibacterial activity was determined by the agar dilution method using a medium (pH 7) which comprises 3 g/l Bacto-Tryptone (produced by Difco Laboratories), 3 g/l meat extract, 1 g/l yeast extract, 1 g/l glucose and 16 g/l agar.
(In general: In agar dilution the substance is mixed into plates at graded concentrations.)

The test system of data set [2] is Staphylococcus aureus ATCC 6538P. The data set is described as above. The data set is classed as cell-based. To be noted: ATCC6538P, pH 7. The procedure: as §1
Another data set relates to HeLaS3 cells. Nature of the data set: Anti-tumor activity against HeLaS3 cells (Neutral Red growth inhibition). The data set is classed as cell-based. To be noted: Homo sapiens, HeLa S3, 72 hours. On the procedure: HeLaS3 cells (ATCC HTB22) were suspended in a medium comprising 10% fetal calf serum, 2 mM glutamine and MEM medium (produced by Nippon Pharmaceutical Co., Ltd.) (hereinafter referred to as medium A) to a concentration of 3×10^4 cells/ml. The cell suspension was put into wells of a 96-well microtiter plate in an amount of 0.1 ml per well. The cells in the plate were cultured at 37° C. for 20 hours in a CO2 -incubator. Subsequently, the test compound appropriately diluted with medium A was added to the wells in an amount of 0.1 ml/well. The cells were further cultured at 37° C. for 72 hours in the CO2 -incubator, and then the culture supernatant was removed. To the residue was added a medium comprising medium A and 0.02% Neutral Red in an amount of 0.1 ml per well, followed by culturing at 37° C. for one hour in the CO2 -incubator, whereby the cells were stained. After removal of the culture supernatant, the residue was washed once with physiological saline. The pigment was extracted with 0.001N hydrochloric acid/30% ethanol, and the absorbance at 550 nm was measured by using a microplate reader. The concentration of the test compound at which the growth of the cells is inhibited by 50% (IC50) was calculated by comparing the absorbance of untreated cells with those of the cells treated with the test compound at known concentrations.

Regarding `CC(=O)c1c(O)cc2cc3c(c(O)c2c1O)C(=O)c1c(O)cc(O)cc1C3=O` [Saintopin E], in the data set on BALB 3T3/H-ras cells, the pIC50 (as a rule, the IC50 on a negative log10 scale, so that one unit is a factor of ten) was 5.62. Also, the Solubility entry is reported as “Readily soluble” in “Solubility” (acetone); “soluble” in “Solubility” (chloroform); “Readily soluble” in “Solubility” (dimethyl sulfoxide (DMSO)); “soluble” in “Solubility” (ethyl acetate); “Readily soluble” in the data set “Solubility” (methanol); “sparingly soluble” in “Solubility” (n-hexane). Moreover, the Solubility entry in the data set “Solubility” (water) was “sparingly soluble”.
As to `O=C1c2cc(O)cc(O)c2C(=O)c2c1cc1cc(O)cc(OS(=O)(=O)O)c1c2O` [UCE 1022], the MIC in data set [1] and in data set [2] was 0.52 µg/mL (≈ 1.24 µM) in each case. Further, the pIC50 in the data set with HeLaS3 cells was 5.21. For the same compound, the Solubility result is on record as “Soluble” in the data set “Solubility” (ethanol), “Soluble” in “Solubility” (methanol), “sparingly soluble” in “Solubility” (n-hexane) and “Soluble” in “Solubility” (water).
Turning to `O=C1c2cc(O)cc(O)c2C(=O)c2c1cc1cc(O)cc(O)c1c2O` [UCT 1003, reference compound], the Solubility entry in “Solubility” (water) is recorded as “sparingly soluble”.
